Laboratory results as given in US20250049970A1, “DLL3 TARGETING PEPTIDES AND CONSTRUCTS THEREOF” (MARIANA ONCOLOGY INC., priority 2023, published 2025).
*1 amine or outer side, *2 acyl side, *3 side chain or, on linkers, in order; H or OH if unused. Where a SMILES comes first, the peptide text is derived from it. Bridges are numbered along the chain shown (N, C = ends). [ ]: non-standard residue; d: D form. The star is where a group is joined. Ala(piperidin-4-yl) = O=C([C@H](CC1CCN([*:3])CC1)N[*:1])[*:2]; DOTA = O=C(O)CN1CCN(CC(=O)O)CCN(CC(=O)*)CCN(CC(=O)O)CC1; 2Nal = N[C@@H](Cc1ccc2ccccc2c1)C(=O)O; tBuAla = CC(C)(C)C[C@H](N)C(=O)O; Chg = N[C@H](C(=O)O)C1CCCCC1; Tle = CC(C)(C)[C@H](N)C(=O)O

Experiments:
CT26.DLL3 cells [1] = experiment: Cell binding (total uptake) of [177Lu]Lu-labeled peptide, CT26.DLL3 cells; format: cell-based; settings: 1 h, 37° C.
Experimental: (§1) [^177Lu]LuCl3 was received from venders in HCl solution. For every mCi of [^177Lu]LuCl3 added to the reaction vial (1.5 mL Eppendorf vial), ammonium acetate buffer (0.2 M, pH 4.9, 100 μL, containing 1% w/v ascorbic acid and 6% v/v ethanol) and peptide conjugate (1 nmol; also referred to herein as “chelator-peptides”) was added. The pH of the solution was determined to be approximately 5 by using pH strips. The reaction vial was incubated at 80° C., 700 RPM for 17-20 minutes. A sample from the reaction was analyzed by RP-HPLC using an Agilent Infinity II 1260 HPLC to determine reaction completion and radiochemical purity of [^177Lu]Lu-chelator-peptides. HPLC conditions: Waters XBridge BEH C18 Column, 130A, 3.5 μm, 4.6 mm×250 mm; mobile phase: Solvent A=water (with 0.1% formic acid), solvent B=acetonitrile (with 0.1% formic acid). Gradients: 25-45% B in 10 minutes, 45-65% B in 12 minutes, 65-90% in 6 minutes at a flow rate of 0.5 mL/minutes Required amounts of the product was formulated in 1% PBSA for cell studies.
(§2) The study was conducted using SHP-77, CT26.WT, CT26.DLL3, and HEK293.DLL3 cells (Table 9)
(§3) Adherent cell studies: The cells were cultured in appropriate culture media (20 mL) in tissue culture treated T150 flasks at 37° C. and 5% C02. Adherent cells were detached (60-70% confluent) using 5 mL Versene at 37° C. for 3 minutes. After confirming the viability using countess and count of detached cells using Trypan blue, the cells were centrifuged at 4° C. for 5 minutes (1,000 rpm). The cell pellet obtained was washed once with PBS and resuspended in 1% PBSA to obtain the desired cell concentration (5-25 million cells/mL).
(§4) Cell numbers used for the assay were in the range of 5 million cells/condition-25 million cells/condition.
(§5) Total uptake: Cells were incubated with 300 μL (0.8 μCi) of the incubation buffer (containing radiolabeled peptide [^177Lu]Lu-test peptide) for 1 hour at 37° C. (Table 10). Post incubation, the cells were pelleted and washed 2 times using cold PBS+1% BSA. The supernatant and washes were combined and counted together as “unbound fraction” in a gamma counter. The cells were then resuspended in 300 μL of 1% PBS+1% BSA and counted in the gamma counter as “bound fraction”.
(§6) In these Tables, “A” represents % s ≤25; “B” represents 25 <% ≤50; “C” represents % >50.

SHP-77 cells [2] = experiment: Internalization of [177Lu]Lu-labeled peptide, SHP-77 cells; format: cell-based; settings: 1 h, 37° C.
Experimental: as §1, §2, §3
as §3, with “Suspension” for “Adherent”, “CO2.” for “C02. Adherent cells were detached (60-70% confluent) using 5 mL Versene at 37° C. for 3 minutes.”, “viability” for “viability using countess”
as §4
(§7) Internalization: The resuspended cells in 300 μL of 1% PBSA and counted in the gamma counter as “bound fraction” were collected in 1.5 mL Eppendorf tube and pelleted. The pelleted cells were incubated with 300 μL of 50 mM Glycine pH=2.5 for 3 minutes and then pelleted discarding the supernatant. This process was repeated one more time. The pelleted cells were washed with 300 μL of cold 1% PBSA and then resuspended in 300 μl 0.3M NaOH. This was counted in the gamma counter as “internalized fraction”.
as §6

DLL3 = target: T1, DLL3 (Homo sapiens, UniProt Q9NYJ7); experiment: SPR KD, biotinylated human DLL3 on streptavidin chip (Table 8); design: biotin (biotinylated); settings: biotinylated human DLL3 on streptavidin sensor chip, 25° C., 1:1 binding model; read-out: SPR KD
T1 sequence (Q9NYJ7 27-618): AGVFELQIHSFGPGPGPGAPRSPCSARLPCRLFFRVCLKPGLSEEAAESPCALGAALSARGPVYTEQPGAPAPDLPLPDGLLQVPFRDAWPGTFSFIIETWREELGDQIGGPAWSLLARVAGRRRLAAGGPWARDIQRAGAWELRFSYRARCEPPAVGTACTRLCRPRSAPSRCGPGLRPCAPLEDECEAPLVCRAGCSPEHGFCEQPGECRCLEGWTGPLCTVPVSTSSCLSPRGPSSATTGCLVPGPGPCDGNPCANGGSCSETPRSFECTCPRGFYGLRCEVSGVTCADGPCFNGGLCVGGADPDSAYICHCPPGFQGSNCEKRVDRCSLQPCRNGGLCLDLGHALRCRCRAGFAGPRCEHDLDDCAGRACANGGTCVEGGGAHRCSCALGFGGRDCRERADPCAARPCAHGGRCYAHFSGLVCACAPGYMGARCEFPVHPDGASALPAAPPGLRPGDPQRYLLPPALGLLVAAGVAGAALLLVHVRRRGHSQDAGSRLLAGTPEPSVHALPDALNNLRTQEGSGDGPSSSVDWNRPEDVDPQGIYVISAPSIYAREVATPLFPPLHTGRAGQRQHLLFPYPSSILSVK
Text: Biotinylated target ligand human DLL3 was immobilized on a streptavidin sensor chip. A reference surface was set up for nonspecific binding and refractive index changes. […] Sensorgram curves were fitted with 1:1 binding model, and affinity and kinetic parameters were obtained using Biacore Insight evaluation 4.0. software.

[3] = tested on: nude mice bearing SHP-77 tumors; experiment: Ex vivo biodistribution of radiolabeled peptides (% IA/g) in nude mice bearing SHP-77 tumors; settings: [177Lu]Lu labelling, 24 hours post-injection, intravenous
Experimental: Mice were intravenously injected (via the lateral tail vein) with a bolus dose of the radiolabeled peptides for ex vivo biodistribution studies when tumor volumes were in range of 200-400 mm^3 for xenograft mice and when age of the mice was 5-7 weeks for tumor naïve mice studies. To assess the amount of radionuclide injected into individual mice the syringe was assayed in a dose calibrator before and after injection for [^177Lu]Lu-peptide, then the injected dose was determined from the weight difference and concentration of the radionuclide solution.
Mice were euthanized at pre-determined time points and selected tissues were resected and collected into pre-weighed tubes. The tubes were then reweighed post resection, the difference giving the weight of each tissue. Radioactivity in each tissue was measured using a gamma counter. Counts were decay corrected to the time of injection and percentage of injected activity per gram (% IA/g) was calculated for each tissue based on the injected activity into each individual mouse. Injected activity was converted to counts based on the sensitivity of the gamma counter. The counts in tissue were then converted to the percentage of injected activity and this was divided by the mass of tissue to give % IA/g.

CT26.DLL3 cells [4] = experiment: Internalization of [177Lu]Lu-labeled peptide, CT26.DLL3 cells; format: cell-based; settings: 1 h, 37° C.
Experimental: as §1, §2, §3, §4, §7, §6

SHP-77 cells [5] = experiment: Cell binding (total uptake) of [177Lu]Lu-labeled peptide, SHP-77 cells; format: cell-based; settings: 1 h, 37° C.
Experimental: as §1, §2, §3
as §3, with “Suspension” for “Adherent”, “CO2.” for “C02. Adherent cells were detached (60-70% confluent) using 5 mL Versene at 37° C. for 3 minutes.”, “viability” for “viability using countess”
as §4, §5, §6

## CC[C@H](C)[C@H](NC(=O)[C@@H](NC(=O)[C@H](Cc1c[nH]c2ccccc12)NC(C)=O)[C@@H](C)O)C(=O)N[C@H]1CSSC[C@@H](C(=O)N[C@@H](Cc2c[nH]c3ccccc23)C(=O)N2CCC[C@H]2C(N)=O)NC(=O)[C@H](CC(=O)O)NC(=O)[C@H](Cc2cnc[nH]2)NC(=O)[C@H](Cc2ccc3ccccc3c2)NC(=O)[C@H](CC(N)=O)NC(=O)[C@H](CCCCNC(=O)CN2CCN(CC(=O)O)CCN(CC(=O)O)CCN(CC(=O)O)CC2)NC1=O [compound 249, Ac-W-T-I-C(3)-Lys(DOTA)-N-(2Nal)-H-D-C(3)-W-P-CONH2] (Ac-WTICK(DOTA)N[2Nal]HDCWP-NH2; disulfide 4-10)
CT26.DLL3 cells [1]
  % Binding: A (% s ≤25)
SHP-77 cells [2]
  % Internalization (out of bound fraction): B (25 <% ≤50)
DLL3
  Kd: < 1 nM
[3]
  kidney uptake (% IA/g): C (“C” represents 0 < % IA/g ≤ 10 in)
  tumor uptake (% IA/g): A (“A” represents 0 < % IA/g ≤ 5 in tumor)
CT26.DLL3 cells [4]
  % Internalization (out of bound fraction): B (25 <% ≤50)
SHP-77 cells [5]
  % Binding: A (% s ≤25)

## CC(=O)N[C@@H](Cc1c[nH]c2ccccc12)C(=O)N[C@H](C(=O)N[C@@H](CC(C)(C)C)C(=O)N[C@H]1CSSC[C@@H](C(=O)N[C@@H](Cc2c[nH]c3ccccc23)C(=O)N2CCC[C@H]2C(N)=O)NC(=O)[C@H](CC(=O)O)NC(=O)[C@H](CCCCNC(=O)CN2CCN(CC(=O)O)CCN(CC(=O)O)CCN(CC(=O)O)CC2)NC(=O)[C@H](Cc2ccc3ccccc3c2)NC(=O)[C@H](CC(N)=O)NC(=O)[C@H](CC2CCNCC2)NC1=O)[C@@H](C)O [compound 314, Ac-W-T-(t-Bu-Ala)-C(3)-[3-(4-piperidinyl)-Ala]-N-(2Nal)-Lys(DOTA)-D-C(3)-W-P-CONH2] (Ac-WT[tBuAla]C[Ala(piperidin-4-yl)]N[2Nal]K(DOTA)DCWP-NH2; disulfide 4-10)
CT26.DLL3 cells [1]
  % Binding: B (25 <% ≤50)
SHP-77 cells [2]
  % Internalization (out of bound fraction): B (25 <% ≤50)
DLL3
  Kd: < 1 nM
[3]
  kidney uptake (% IA/g): C (“C” represents 0 < % IA/g ≤ 10 in)
  tumor uptake (% IA/g): A (“A” represents 0 < % IA/g ≤ 5 in tumor)
CT26.DLL3 cells [4]
  % Internalization (out of bound fraction): B (25 <% ≤50)
SHP-77 cells [5]
  % Binding: B (25 <% ≤50)

## CC(=O)N[C@@H](Cc1c[nH]c2ccccc12)C(=O)N[C@H](C(=O)N[C@H](C(=O)N[C@H]1CSSC[C@@H](C(=O)N[C@@H](Cc2c[nH]c3ccccc23)C(=O)N2CCC[C@H]2C(N)=O)NC(=O)[C@H](CC(=O)O)NC(=O)[C@H](CCCCNC(=O)CN2CCN(CC(=O)O)CCN(CC(=O)O)CCN(CC(=O)O)CC2)NC(=O)[C@H](Cc2ccc3ccccc3c2)NC(=O)[C@H](CC(N)=O)NC(=O)[C@H](CC(N)=O)NC1=O)C(C)(C)C)[C@@H](C)O [compound 315, Ac-W-T-(Tbg)-C(3)-N-N-(2Nal)-Lys(DOTA)-D-C(3)-W-P-CONH2] (Ac-WT[Tle]CNN[2Nal]K(DOTA)DCWP-NH2; disulfide 4-10)
CT26.DLL3 cells [1]
  % Binding: A (% s ≤25)
SHP-77 cells [2]
  % Internalization (out of bound fraction): B (25 <% ≤50)
DLL3
  Kd: < 1 nM
[3]
  kidney uptake (% IA/g): C (“C” represents 0 < % IA/g ≤ 10 in)
  tumor uptake (% IA/g): A (“A” represents 0 < % IA/g ≤ 5 in tumor)
CT26.DLL3 cells [4]
  % Internalization (out of bound fraction): C (% >50)
SHP-77 cells [5]
  % Binding: B (25 <% ≤50)

## CC(=O)N[C@@H](Cc1c[nH]c2ccccc12)C(=O)N[C@H](C(=O)N[C@H](C(=O)N[C@H]1CSSC[C@@H](C(=O)N[C@@H](Cc2c[nH]c3ccccc23)C(=O)N2CCC[C@H]2C(N)=O)NC(=O)[C@H](CC(=O)O)NC(=O)[C@H](CCCCNC(=O)CN2CCN(CC(=O)O)CCN(CC(=O)O)CCN(CC(=O)O)CC2)NC(=O)[C@H](Cc2ccc3ccccc3c2)NC(=O)[C@H](CC(N)=O)NC(=O)[C@H](CC2CCNCC2)NC1=O)C1CCCCC1)[C@@H](C)O [compound 324, Ac-W-T-(Chg)-C(3)-[3-(4-piperidinyl)-Ala]-N-(2Nal)-Lys(DOTA)-D-C(3)-W-P-CONH2] (Ac-WT[Chg]C[Ala(piperidin-4-yl)]N[2Nal]K(DOTA)DCWP-NH2; disulfide 4-10)
CT26.DLL3 cells [1]
  % Binding: A (% s ≤25)
SHP-77 cells [2]
  % Internalization (out of bound fraction): B (25 <% ≤50)
DLL3
  Kd: < 1 nM
CT26.DLL3 cells [4]
  % Internalization (out of bound fraction): C (% >50)
SHP-77 cells [5]
  % Binding: B (25 <% ≤50)
